Columns and labels:
[1] = Mutagenicity in Salmonella typhimurium TA98 assessed as number of revertants per plate at 5000 ug pretreated for 90 mins measured after 66 hrs by AMES test (reference value: 25.67 +/- 5.51); type: toxicity, Salmonella enterica subsp. enterica serovar Typhimurium; conditions: in vivo, 67.5 h, dose 5000 µg
[2] = system: Lactiplantibacillus plantarum; assay: Antimicrobial activity against Lactobacillus plantarum DSM 20174 assessed as microbial growth inhibition incubated for 24 hrs; type: functional
Escherichia coli = assay: Antimicrobial activity against Escherichia coli K12 assessed as microbial growth inhibition incubated for 24 hrs by TTC staining based assay; type: functional
Thomasclavelia ramosa = assay: Antimicrobial activity against Clostridium ramosum DSM 1402 assessed as microbial growth inhibition incubated for 48 hrs; type: functional
[3] = Mutagenicity in Salmonella typhimurium TA100 assessed as number of revertants per plate at 1500 ug pretreated for 90 mins measured after 66 hrs in presence of S9 by AMES test (reference value: 201 +/- 9.90); type: toxicity, Salmonella enterica subsp. enterica serovar Typhimurium; conditions: in vivo, 67.5 h, dose 1500 µg
Blautia producta = assay: Antimicrobial activity against Blautia producta DSM 2950 assessed as microbial growth inhibition incubated for 48 hrs; type: functional
[4] = Mutagenicity in Salmonella typhimurium TA100 assessed as number of revertants per plate at 5000 ug pretreated for 90 mins measured after 66 hrs in presence of S9 by AMES test (reference value: 201 +/- 9.90); type: toxicity, Salmonella enterica subsp. enterica serovar Typhimurium; conditions: in vivo, 67.5 h, dose 5000 µg
[5] = Mutagenicity in Salmonella typhimurium TA98 assessed as number of revertants per plate at 500 ug pretreated for 90 mins measured after 66 hrs by AMES test (reference value: 25.67 +/- 5.51); type: toxicity, Salmonella enterica subsp. enterica serovar Typhimurium; conditions: in vivo, 67.5 h, dose 500 µg
[6] = Stability of compound in simulated gastric fluid assessed as compound remaining at 2 mg/ml measured after 24 hrs by HPLC analysis; type: ADME; conditions: read-out: Stability
Chlamydia trachomatis [7] = assay: Antibacterial activity against Chlamydia trachomatis L2 infected in HEp-2 cells assessed as reduction in number of chlamydial inclusion at 3.12 ug/ml incubated for 24 hrs by fluorescence microscopy relative to control; type: functional; parameters: scale not given: the % may be the effect or the level left; conditions: dose 3.12 µg/ml
[8] = Stability of compound in simulated gastric fluid assessed as compound remaining at 2 mg/ml measured after 180 mins by HPLC analysis; type: ADME; conditions: read-out: Stability
[9] = Mutagenicity in Salmonella typhimurium TA100 assessed as number of revertants per plate at 150 ug pretreated for 90 mins measured after 66 hrs by AMES test (reference value: 206 +/- 7.07); type: toxicity, Salmonella enterica subsp. enterica serovar Typhimurium; conditions: in vivo, 67.5 h, dose 150 µg
[10] = Mutagenicity in Salmonella typhimurium TA100 assessed as number of revertants per plate at 150 ug pretreated for 90 mins measured after 66 hrs in presence of S9 by AMES test (reference value: 201 +/- 9.90); type: toxicity, Salmonella enterica subsp. enterica serovar Typhimurium; conditions: in vivo, 67.5 h, dose 150 µg
Candida albicans = assay: Antimicrobial activity against Candida albicans 90028 assessed as microbial growth inhibition by broth microdilution method; type: functional
[11] = Mutagenicity in Salmonella typhimurium TA100 assessed as number of revertants per plate at 5000 ug pretreated for 90 mins measured after 66 hrs by AMES test (reference value: 206 +/- 7.07); type: toxicity, Salmonella enterica subsp. enterica serovar Typhimurium; conditions: in vivo, 67.5 h, dose 5000 µg
[12] = Cytotoxicity against HEK293 cells assessed as cell survival at 256 ug/ml incubated for 20 hrs by XTT assay relative to control; type: toxicity, cell-based; conditions: human, at 256 µg/mL, read-out: Survival
[13] = Mutagenicity in Salmonella typhimurium TA98 assessed as mutagenic index ratio at 1500 ug pretreated for 90 mins measured after 66 hrs by AMES test; type: toxicity, Salmonella enterica subsp. enterica serovar Typhimurium; conditions: in vivo, 67.5 h, dose 1500 µg
[14] = Mutagenicity in Salmonella typhimurium TA100 assessed as mutagenic index ratio at 50 ug pretreated for 90 mins measured after 66 hrs in presence of S9 by AMES test; type: toxicity, Salmonella enterica subsp. enterica serovar Typhimurium; conditions: in vivo, 67.5 h, dose 50 µg
Pseudomonas aeruginosa = assay: Antimicrobial activity against Pseudomonas aeruginosa PA01 assessed as microbial growth inhibition incubated for 24 hrs by TTC staining based assay; type: functional
[15] = Mutagenicity in Salmonella typhimurium TA98 assessed as number of revertants per plate at 5000 ug pretreated for 90 mins measured after 66 hrs in presence of S9 fraction by AMES test (reference value: 24.33 +/- 9.50); type: toxicity, subcellular, Salmonella enterica subsp. enterica serovar Typhimurium; conditions: s9, 67.5 h, dose 5000 µg
Staphylococcus aureus = assay: Antimicrobial activity against Staphylococcus aureus USA 300 JE2 assessed as microbial growth inhibition incubated for 24 hrs by TTC staining based assay; type: functional
[16] = Mutagenicity in Salmonella typhimurium TA100 assessed as number of revertants per plate at 50 ug pretreated for 90 mins measured after 66 hrs by AMES test (reference value: 206 +/- 7.07); type: toxicity, Salmonella enterica subsp. enterica serovar Typhimurium; conditions: in vivo, 67.5 h, dose 50 µg
Acinetobacter baumannii = assay: Antimicrobial activity against Acinetobacter baumannii 2208 assessed as microbial growth inhibition incubated for 24 hrs by TTC staining based assay; type: functional
[17] = Mutagenicity in Salmonella typhimurium TA98 assessed as mutagenic index ratio at 50 ug pretreated for 90 mins measured after 66 hrs by AMES test; type: toxicity, Salmonella enterica subsp. enterica serovar Typhimurium; conditions: in vivo, 67.5 h, dose 50 µg
[18] = Mutagenicity in Salmonella typhimurium TA98 assessed as number of revertants per plate at 50 ug pretreated for 90 mins measured after 66 hrs in presence of S9 fraction by AMES test (reference value: 24.33 +/- 9.50); type: toxicity, subcellular, Salmonella enterica subsp. enterica serovar Typhimurium; conditions: s9, 67.5 h, dose 50 µg
[19] = Mutagenicity in Salmonella typhimurium TA100 assessed as number of revertants per plate at 500 ug pretreated for 90 mins measured after 66 hrs by AMES test (reference value: 206 +/- 7.07); type: toxicity, Salmonella enterica subsp. enterica serovar Typhimurium; conditions: in vivo, 67.5 h, dose 500 µg
[20] = Mutagenicity in Salmonella typhimurium TA100 assessed as mutagenic index ratio at 5000 ug pretreated for 90 mins measured after 66 hrs by AMES test; type: toxicity, Salmonella enterica subsp. enterica serovar Typhimurium; conditions: in vivo, 67.5 h, dose 5000 µg
[21] = Stability of compound in human serum assessed as compound remaining at 2 mg/ml measured after 180 mins by HPLC analysis; type: ADME, cell-free; conditions: read-out: Stability
[22] = Mutagenicity in Salmonella typhimurium TA98 assessed as number of revertants per plate at 1500 ug pretreated for 90 mins measured after 66 hrs by AMES test (reference value: 25.67 +/- 5.51); type: toxicity, Salmonella enterica subsp. enterica serovar Typhimurium; conditions: in vivo, 67.5 h, dose 1500 µg
Chlamydia trachomatis [23] = assay: Inhibition of recombinant Chlamydia trachomatis ClpX ATPase activity assessed as reduction in ATP consumption at 25 ug/ml incubated for 60 mins by Kinase Glo assay relative to control; conditions: dose 25.0 µg/ml
Anaerostipes caccae = assay: Antimicrobial activity against Anaerostipes caccae […] assessed as microbial growth inhibition incubated for 48 hrs; type: functional
[24] = Cytotoxicity against HEK293 cells assessed as cell viability at 25 ug/ml incubated for 20 hrs by XTT assay relative to control; type: toxicity, cell-based; conditions: human, at 25 µg/mL, read-out: Activity
[25] = Mutagenicity in Salmonella typhimurium TA100 assessed as number of revertants per plate at 1500 ug pretreated for 90 mins measured after 66 hrs by AMES test (reference value: 206 +/- 7.07); type: toxicity, Salmonella enterica subsp. enterica serovar Typhimurium; conditions: in vivo, 67.5 h, dose 1500 µg
[26] = Mutagenicity in Salmonella typhimurium TA98 assessed as mutagenic index ratio at 5000 ug pretreated for 90 mins measured after 66 hrs by AMES test; type: toxicity, Salmonella enterica subsp. enterica serovar Typhimurium; conditions: in vivo, 67.5 h, dose 5000 µg
[27] = Mutagenicity in Salmonella typhimurium TA100 assessed as mutagenic index ratio at 500 ug pretreated for 90 mins measured after 66 hrs in presence of S9 by AMES test; type: toxicity, Salmonella enterica subsp. enterica serovar Typhimurium; conditions: in vivo, 67.5 h, dose 500 µg

## N#Cc1ccccc1C1Sc2ccccc2NC2=C1C(=O)c1ccccc12 (stereo not given)
[1]
  Activity: 37.5
[2]
  MIC: > 125 µg/mL
Escherichia coli
  MIC: > 125 µg/mL
Thomasclavelia ramosa
  MIC: > 125 µg/mL
[3]
  Activity: 198.5
Blautia producta
  MIC: > 125 µg/mL
[4]
  Activity: 227
[5]
  Activity: 38
[6]
  remaining at 24 h, 2 mg/ml: 70%
Chlamydia trachomatis [7]
  Activity: <60%
[8]
  remaining at 3 h, 2 mg/ml: 90%
[9]
  Activity: 187.5
[10]
  Activity: 187
Candida albicans
  MIC: > 1000 µg/mL
[11]
  Activity: 241
[12]
  viability at 20 h, 256 ug/ml: ≥ 75%
[13]
  Ratio: 1.51
[14]
  Ratio: 0.92
Pseudomonas aeruginosa
  MIC: > 125 µg/mL
[15]
  Activity: 43.5
Staphylococcus aureus
  MIC: > 125 µg/mL
[16]
  Activity: 190.5
Acinetobacter baumannii
  MIC: > 125 µg/mL
[17]
  Ratio: 1.01
[18]
  Activity: 32
[19]
  Activity: 233
[20]
  Ratio: 1.16
[21]
  remaining at 3 h, 2 mg/ml: 100%
[22]
  Activity: 39
Chlamydia trachomatis [23]
  inhibition: 20%
Anaerostipes caccae
  MIC: > 125 µg/mL
[24]
  viability at 20 h, 25 ug/ml: 84%
[25]
  Activity: 241
[26]
  Ratio: 1.46
[27]
  Ratio: 0.95

Source: ChEMBL document CHEMBL5380782, “Design, Biological Evaluation, and Computer-Aided Analysis of Dihydrothiazepines as Selective Antichlamydial Agents” (J Med Chem, 2023)
